Test results as given in patent US20020091086A1, “Peptides that block viral infectivity and methods of use thereof” (priority 1999, published 2002).
Where two headings read alike, the source gives them in different places. Marks after values point to notes of the source that are not given here.

Tests used:
HIV-1 [1] = conditions: H9 cells; for Day 7 RT HIV-1 / Day 10 RT HIV-1: 100 μM; for HIV-1 infection, result in words: summary of Experiments 1-5
Source text: (§1) In this example, the methods that were used to analyze the ability of various tripeptides to inhibit HIV-1, HIV-2, and SIV replication are disclosed. In Experiments 1 and 2, approximately 200,000 H9 cells were infected with HIV-1, HIV-2 or SIV at 25 TCID50 to test the inhibitory effect of the following synthesized tripeptides LKA-NH2, ILK-NH2, GPQ-NH2, GHK-NH2, GKG-NH2, ACQ-NH2, CQG-NH2, ARV-NH2, KAR-NH2, HKA-NH2, GAT-NH2, KAL-NH2, and GPG-NH2. Accordingly, the H9 cells were resuspended with or without the different peptides (approximately 100 μM) in 1 ml of RPMI 1640 medium supplemented with 10% (v/v) heat-inactivated fetal bovine serum (FBS), penicillin (100 u/ml), and streptomycin (100 u/ml), all available through GIBCO, and Polybrene (2 μg/ml), available through Sigma. Thereafter, viruses were added at 25 TCID50 in a volume of 20-30μl. Cells were incubated with virus at 37° C. for 1 hr then pelleted at 170×g for 7 minutes. The cells were then washed three times in RPMI medium without peptides at room temperature and pelleted at 170×g for 7 minutes, as above. After the final wash, the cells were resuspended in RPMI culture medium containing the peptides in a 24-well plate (Costar corporation) and were kept at 37° C. in 5% CO2 with humidity.
(§2) Culture supernatants were collected and analyzed when the medium was changed at 4, 7, 10, and 14 days post infection. To monitor the replication of virus, reverse transcriptase (RT) activity in the supernatants was assayed using a commercially available Lenti-RT activity kit. (Cavidi Tech, Uppsala, Sweden). The amount of RT was determined with the aid of a regression line of standards. The results are presented as absorbance values (OD) and higher absorbance indicates a higher protein concentration and greater viral infection. Syncytium formation was also monitored by microscopic examination.
In Experiment 3, (Table 4), approximately 200,000 H9 cells were infected with HIV-1, HIV-2 or SIV at 25 TCID50 to test the inhibitory effect of different concentrations of peptides GPG-NH2, GKG-NH2 and CQG-NH2 and combinations of these peptides (the indicated concentration corresponds to the concentration of each tripeptide). As above, H9 cells were resuspended with or without the different peptides at varying concentrations in 1 ml of RPMI 1640 medium supplemented with 10% (v/v) heat-inactivated fetal bovine serum (FBS), penicillin (100 u/ml), and streptomycin (100 u/ml), and Polybrene (2 μg/ml). Thereafter, viruses were added at 25 TCID50 in a volume of 20-30 μl. Cells were incubated with the indicated virus at 37° C. for 1 hr then pelleted at 170×g for 7 minutes. The cells were then washed three times in RPMI medium without peptides at room temperature and pelleted at 170×g for 7 minutes, as above. After the final wash, the cells were resuspended in RPMI culture medium containing the peptides in a 24-well plate (Costar corporation) and kept at 37° C. in 5% CO2 with humidity.
Culture supernatants were collected when the medium was changed at 4, 7, and 11 days post infection. As above, the replication of each virus was monitored by detecting reverse transcriptase (RT) activity in the supernatants using the Lenti-RT activity kit. (Cavidi Tech). The amount of RT was determined with the aid of a regression line of standards. The results are presented as absorbance values (OD) and higher absorbance indicates a higher protein concentration and greater viral infection.
In Experiment 4, (Table 5) approximately 200,000 H9 cells were infected with HIV-1 at 25 TCID50 to test the inhibitory effect of different concentrations of peptides GPG-NH2, GKG-NH2 and CQG-NH2 and combinations of these peptides (the indicated concentration corresponds to the total concentration of tripeptide).

HIV-2 = HIV-2 infectivity assay in H9 cells, RT activity in supernatant; assay type: cell-based
SIV = SIV infectivity assay in H9 cells, RT activity in supernatant; assay type: cell-based
HIV-1 [2] = conditions: H9 cells; for HIV-1 Syncytia: 100 μM
Source text: as §1, §2

With Gly-Pro-Gln [GPQ-NH2] the “Day 7 RT HIV-1” value (HIV-1 [1]; Experiment 1) was 0.204 OD, the “Day 10 RT HIV-1” value (HIV-1 [1]; Experiment 1) was 1.965 OD and the “Day 7 RT HIV-1” value (HIV-1 [1]; Experiment 2) was 0.884 OD. The “Day 10 RT HIV-1” value (HIV-1 [1]; Experiment 2) was 2.848 OD, the “HIV-1 infection, result in words” value (HIV-1 [1]) was “did not prevent HIV infection” and the “Day 7 RT HIV-2” value (HIV-2; Experiment 1, 100 μM) was 3.692 OD. For the same substance, the “Day 10 RT HIV-2” value (HIV-2; Experiment 1, 100 μM) was 2.734 OD, the “Day 7 RT HIV-2” value (HIV-2; Experiment 2, 100 μM) was 1.511 OD and the “Day 10 RT HIV-2” value (HIV-2; Experiment 2, 100 μM) was 2.382 OD. For the same substance, the “Day 7 RT SIV” value (SIV; Experiment 1, 100 μM) was 1.542 OD, the “Day 10 RT SIV” value (SIV; Experiment 1, 100 μM) was 2.176 OD and the “Day 7 RT SIV” value (SIV; Experiment 2, 100 μM) was 0.574 OD. The “Day 10 RT SIV” value (SIV; Experiment 2, 100 μM) was 2.319 OD, the “HIV-1 Syncytia” value (HIV-1 [2]; Experiment 1) was “pos” and the “HIV-1 Syncytia” value (HIV-1 [2]; Experiment 2) was “pos”. The “HIV-1 syncytia formation, result in words” value (HIV-1 [2]; summary of Experiments 1-2) was “failed to prevent infection and HIV-1 syncytia formation”.
His-Lys-Ala [HKA-NH2] was tested, and the “Day 7 RT HIV-1” value (HIV-1 [1]; Experiment 1) was 0.312 OD, the “Day 10 RT HIV-1” value (HIV-1 [1]; Experiment 1) was 2.546 OD and the “Day 7 RT HIV-1” value (HIV-1 [1]; Experiment 2) was 1.081 OD. The “Day 10 RT HIV-1” value (HIV-1 [1]; Experiment 2) was 2.794 OD, the “HIV-1 infection, result in words” value (HIV-1 [1]) was “did not prevent HIV infection” and the “Day 7 RT HIV-2” value (HIV-2; Experiment 1, 100 μM) was 3.408 OD. For the same substance, the “Day 10 RT HIV-2” value (HIV-2; Experiment 1, 100 μM) was 2.669 OD, the “Day 7 RT HIV-2” value (HIV-2; Experiment 2, 100 μM) was 1.678 OD and the “Day 10 RT HIV-2” value (HIV-2; Experiment 2, 100 μM) was 2.560 OD. The “Day 7 RT SIV” value (SIV; Experiment 1, 100 μM) was 0.416 OD, the “Day 10 RT SIV” value (SIV; Experiment 1, 100 μM) was 2.520 OD and the “Day 7 RT SIV” value (SIV; Experiment 2, 100 μM) was 0.455 OD. The “Day 10 RT SIV” value (SIV; Experiment 2, 100 μM) was 2.623 OD, the “HIV-1 Syncytia” value (HIV-1 [2]; Experiment 1) was “pos” and the “HIV-1 Syncytia” value (HIV-1 [2]; Experiment 2) was “pos”.
With Iso-Leu-Lys [ILK-NH2] the “Day 7 RT HIV-1” value (HIV-1 [1]; Experiment 1) was 0.365 OD, the “Day 10 RT HIV-1” value (HIV-1 [1]; Experiment 1) was 2.033 OD and the “Day 7 RT HIV-1” value (HIV-1 [1]; Experiment 2) was 0.581 OD. For the same substance, the “Day 10 RT HIV-1” value (HIV-1 [1]; Experiment 2) was 2.950 OD, the “Day 7 RT HIV-2” value (HIV-2; Experiment 1, 100 μM) was 3.467 OD and the “Day 10 RT HIV-2” value (HIV-2; Experiment 1, 100 μM) was 2.791 OD. The “Day 7 RT HIV-2” value (HIV-2; Experiment 2, 100 μM) was 1.692 OD, the “Day 10 RT HIV-2” value (HIV-2; Experiment 2, 100 μM) was 2.557 OD and the “Day 7 RT SIV” value (SIV; Experiment 1, 100 μM) was 3.180 OD. For the same substance, the “Day 10 RT SIV” value (SIV; Experiment 1, 100 μM) was 2.255 OD, the “Day 7 RT SIV” value (SIV; Experiment 2, 100 μM) was 0.515 OD and the “Day 10 RT SIV” value (SIV; Experiment 2, 100 μM) was 2.632 OD. For the same substance, the “HIV-1 Syncytia” value (HIV-1 [2]; Experiment 1) was “pos” and the “HIV-1 Syncytia” value (HIV-1 [2]; Experiment 2) was “pos”.
Leu-Lys-Ala [LKA-NH2] was tested, and the “Day 7 RT HIV-1” value (HIV-1 [1]; Experiment 1) was 0.568* OD, the “Day 10 RT HIV-1” value (HIV-1 [1]; Experiment 1) was 2.429 OD and the “Day 7 RT HIV-1” value (HIV-1 [1]; Experiment 2) was 0.894* OD. The “Day 10 RT HIV-1” value (HIV-1 [1]; Experiment 2) was 2.989 OD, the “HIV-1 infection, result in words” value (HIV-1 [1]) was “did not prevent HIV infection” and the “Day 7 RT HIV-2” value (HIV-2; Experiment 1, 100 μM) was 3.649 OD. The “Day 10 RT HIV-2” value (HIV-2; Experiment 1, 100 μM) was 2.769 OD, the “Day 7 RT HIV-2” value (HIV-2; Experiment 2, 100 μM) was 1.689 OD and the “Day 10 RT HIV-2” value (HIV-2; Experiment 2, 100 μM) was 2.637 OD. For the same substance, the “Day 7 RT SIV” value (SIV; Experiment 1, 100 μM) was 3.577 OD, the “Day 10 RT SIV” value (SIV; Experiment 1, 100 μM) was 2.452 OD and the “Day 7 RT SIV” value (SIV; Experiment 2, 100 μM) was 0.724 OD. The “Day 10 RT SIV” value (SIV; Experiment 2, 100 μM) was 2.797 OD, the “HIV-1 Syncytia” value (HIV-1 [2]; Experiment 1) was “pos” and the “HIV-1 Syncytia” value (HIV-1 [2]; Experiment 2) was “pos”.
For Lys-Ala-Arg [KAR-NH2], the “Day 7 RT HIV-1” value (HIV-1 [1]; Experiment 1) was 0.380 OD, the “Day 10 RT HIV-1” value (HIV-1 [1]; Experiment 1) was 2.779 OD and the “Day 7 RT HIV-1” value (HIV-1 [1]; Experiment 2) was 0.753 OD. The “Day 10 RT HIV-1” value (HIV-1 [1]; Experiment 2) was 2.928 OD, the “Day 7 RT HIV-2” value (HIV-2; Experiment 1, 100 μM) was 3.419 OD and the “Day 10 RT HIV-2” value (HIV-2; Experiment 1, 100 μM) was 2.640 OD. For the same substance, the “Day 7 RT HIV-2” value (HIV-2; Experiment 2, 100 μM) was 1.904 OD, the “Day 10 RT HIV-2” value (HIV-2; Experiment 2, 100 μM) was 2.742 OD and the “Day 7 RT SIV” value (SIV; Experiment 1, 100 μM) was 0.266 OD. The “Day 10 RT SIV” value (SIV; Experiment 1, 100 μM) was 1.722 OD, the “Day 7 RT SIV” value (SIV; Experiment 2, 100 μM) was 1.034 OD and the “Day 10 RT SIV” value (SIV; Experiment 2, 100 μM) was 2.672 OD. For the same substance, the “HIV-1 Syncytia” value (HIV-1 [2]; Experiment 1) was “pos” and the “HIV-1 Syncytia” value (HIV-1 [2]; Experiment 2) was “pos”.
For Lys-Ala-Leu [KAL-NH2], the “Day 7 RT HIV-1” value (HIV-1 [1]; Experiment 1) was 0.246 OD, the “Day 10 RT HIV-1” value (HIV-1 [1]; Experiment 1) was 1.995 OD and the “Day 7 RT HIV-1” value (HIV-1 [1]; Experiment 2) was 0.999 OD. For the same substance, the “Day 10 RT HIV-1” value (HIV-1 [1]; Experiment 2) was 2.791 OD, the “HIV-1 infection, result in words” value (HIV-1 [1]) was “failed to prevent infection” and the “Day 7 RT HIV-2” value (HIV-2; Experiment 1, 100 μM) was 3.372 OD. The “Day 10 RT HIV-2” value (HIV-2; Experiment 1, 100 μM) was 2.749 OD, the “Day 7 RT HIV-2” value (HIV-2; Experiment 2, 100 μM) was 1.757 OD and the “Day 10 RT HIV-2” value (HIV-2; Experiment 2, 100 μM) was 2.383 OD. For the same substance, the “Day 7 RT SIV” value (SIV; Experiment 1, 100 μM) was 1.091 OD, the “Day 10 RT SIV” value (SIV; Experiment 1, 100 μM) was 2.524 OD and the “Day 7 RT SIV” value (SIV; Experiment 2, 100 μM) was 0.511 OD. The “Day 10 RT SIV” value (SIV; Experiment 2, 100 μM) was 2.663 OD, the “HIV-1 Syncytia” value (HIV-1 [2]; Experiment 1) was “pos” and the “HIV-1 Syncytia” value (HIV-1 [2]; Experiment 2) was “pos”.
